Source: patent US6114310A, “Efflux pump inhibitors” (priority 1998, dated 2000)

System: Pseudomonas aeruginosa PAM1001
Assay: microbe, parasite or virus in culture
Assay type: cell-based
How it was run: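 Checkerboard broth microdilution (NCCLS) with the efflux pump inhibitor and levofloxacin, each diluted along one axis of the plate, in Mueller Hinton Broth. Inoculum 5×10^5 CFU/ml from early-log culture; incubation 20 h at 35° C. Growth read at 650 nm and visually.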

[1] = Table 1, EPI Conc. μg/ml (number not given; column between 10 and 40 μg/ml)
[2] = Table 2, EPI Conc. μg/ml (number not given; column between 10 and 40 μg/ml)
[3] = Table 3, EPI Conc. μg/ml (number not given; column between 10 and 40 μg/ml)
[4] = Table 4, EPI Conc. μg/ml (number not given; column between 10 and 40 μg/ml)

Substance | Levofloxacin MIC Against P. aeruginosa PAM1001 in Presence of Efflux Pump Inhibitor (EPI), Minimum Inhibitory Concentration (Table 1, EPI Conc. 0 μg/ml) [µg/mL] | Levofloxacin MIC Against P. aeruginosa PAM1001 in Presence of Efflux Pump Inhibitor (EPI), Minimum Inhibitory Concentration (Table 1, EPI Conc. 0.625 μg/ml) [µg/mL] | Levofloxacin MIC Against P. aeruginosa PAM1001 in Presence of Efflux Pump Inhibitor (EPI), Minimum Inhibitory Concentration (Table 1, EPI Conc. 5 μg/ml) [µg/mL] | Levofloxacin MIC Against P. aeruginosa PAM1001 in Presence of Efflux Pump Inhibitor (EPI), Minimum Inhibitory Concentration (Table 1, EPI Conc. 10 μg/ml) [µg/mL] | Levofloxacin MIC Against P. aeruginosa PAM1001 in Presence of Efflux Pump Inhibitor (EPI), Minimum Inhibitory Concentration (Table 1, EPI Conc. 40 μg/ml) [µg/mL] | Levofloxacin MIC Against P. aeruginosa PAM1001 in Presence of Efflux Pump Inhibitor (EPI), Minimum Inhibitory Concentration [1] [µg/mL] | Levofloxacin MIC Against P. aeruginosa PAM1001 in Presence of Efflux Pump Inhibitor (EPI), Minimum Inhibitory Concentration (Table 2, EPI Conc. 0 μg/ml) [µg/mL] | Levofloxacin MIC Against P. aeruginosa PAM1001 in Presence of Efflux Pump Inhibitor (EPI), Minimum Inhibitory Concentration (Table 2, EPI Conc. 0.625 μg/ml) [µg/mL] | Levofloxacin MIC Against P. aeruginosa PAM1001 in Presence of Efflux Pump Inhibitor (EPI), Minimum Inhibitory Concentration (Table 2, EPI Conc. 5 μg/ml) [µg/mL] | Levofloxacin MIC Against P. aeruginosa PAM1001 in Presence of Efflux Pump Inhibitor (EPI), Minimum Inhibitory Concentration (Table 2, EPI Conc. 10 μg/ml) [µg/mL] | Levofloxacin MIC Against P. aeruginosa PAM1001 in Presence of Efflux Pump Inhibitor (EPI), Minimum Inhibitory Concentration (Table 2, EPI Conc. 40 μg/ml) [µg/mL] | Levofloxacin MIC Against P. aeruginosa PAM1001 in Presence of Efflux Pump Inhibitor (EPI), Minimum Inhibitory Concentration (Table 2, EPI Conc. […]) [µg/mL] | Levofloxacin MIC Against P. aeruginosa PAM1001 in Presence of Efflux Pump Inhibitor (EPI), Minimum Inhibitory Concentration [2] [µg/mL] | Levofloxacin MIC Against P. aeruginosa PAM1001 in Presence of Efflux Pump Inhibitor (EPI), Minimum Inhibitory Concentration (Table 3, EPI Conc. 0 μg/ml) [µg/mL] | Levofloxacin MIC Against P. aeruginosa PAM1001 in Presence of Efflux Pump Inhibitor (EPI), Minimum Inhibitory Concentration (Table 3, EPI Conc. 0.625 μg/ml) [µg/mL] | Levofloxacin MIC Against P. aeruginosa PAM1001 in Presence of Efflux Pump Inhibitor (EPI), Minimum Inhibitory Concentration (Table 3, EPI Conc. 5 μg/ml) [µg/mL] | Levofloxacin MIC Against P. aeruginosa PAM1001 in Presence of Efflux Pump Inhibitor (EPI), Minimum Inhibitory Concentration (Table 3, EPI Conc. 10 μg/ml) [µg/mL] | Levofloxacin MIC Against P. aeruginosa PAM1001 in Presence of Efflux Pump Inhibitor (EPI), Minimum Inhibitory Concentration (Table 3, EPI Conc. 40 μg/ml) [µg/mL] | Levofloxacin MIC Against P. aeruginosa PAM1001 in Presence of Efflux Pump Inhibitor (EPI), Minimum Inhibitory Concentration [3] [µg/mL] | Levofloxacin MIC Against P. aeruginosa PAM1001 in Presence of Efflux Pump Inhibitor (EPI), Minimum Inhibitory Concentration (Table 4, EPI Conc. 0 μg/ml) [µg/mL] | other results
D-Ornithyl-D-β-(3-quinolinyl)alanine 2,3-trimethylenepyridyl-5-amide [Compound 41 (Table 2)] | 4 | 4 | 0.125 | 0.06 | 0.015 | 0.015 | 4 | 4 | 2 | 1 | 0.50 | 4 | 0.25 | 4 | 4 | 4 | 2 | 0.50 | 1 | 4 | Levofloxacin MIC Against P. aeruginosa PAM1001 in Presence of Efflux Pump Inhibitor (EPI), Minimum Inhibitory Concentration (Table 1, EPI Conc. […]): 2 µg/mL; Levofloxacin MIC Against P. aeruginosa PAM1001 in Presence of Efflux Pump Inhibitor (EPI), Minimum Inhibitory Concentration (Table 3, EPI Conc. […]): 4 µg/mL; Levofloxacin MIC Against P. aeruginosa PAM1001 in Presence of Efflux Pump Inhibitor (EPI), Minimum Inhibitory Concentration (Table 4, EPI Conc. 0.625 μg/ml): 4 µg/mL; Levofloxacin MIC Against P. aeruginosa PAM1001 in Presence of Efflux Pump Inhibitor (EPI), Minimum Inhibitory Concentration (Table 4, EPI Conc. 5 μg/ml): 2 µg/mL; Levofloxacin MIC Against P. aeruginosa PAM1001 in Presence of Efflux Pump Inhibitor (EPI), Minimum Inhibitory Concentration (Table 4, EPI Conc. 10 μg/ml): 0.50 µg/mL; Levofloxacin MIC Against P. aeruginosa PAM1001 in Presence of Efflux Pump Inhibitor (EPI), Minimum Inhibitory Concentration (Table 4, EPI Conc. […]): 4 µg/mL; Levofloxacin MIC Against P. aeruginosa PAM1001 in Presence of Efflux Pump Inhibitor (EPI), Minimum Inhibitory Concentration [4]: 0.50 µg/mL
D-Ornithyl-β-(N-4-methylphenethyl)alanine quinoline-3-amide [Compound 32 (Table 3)] | 4 | 4 | 1 | 0.25 | 0.25 | 0.25 | 4 | 4 | 2 | 0.50 | 0.06 | 4 | 0.50 | 4 | 4 | 0.25 | 0.06 | 0.015 | 0.03 | 4 | Levofloxacin MIC Against P. aeruginosa PAM1001 in Presence of Efflux Pump Inhibitor (EPI), Minimum Inhibitory Concentration (Table 4, EPI Conc. 0.625 μg/ml): 4 µg/mL; Levofloxacin MIC Against P. aeruginosa PAM1001 in Presence of Efflux Pump Inhibitor (EPI), Minimum Inhibitory Concentration (Table 4, EPI Conc. 5 μg/ml): 1 µg/mL; Levofloxacin MIC Against P. aeruginosa PAM1001 in Presence of Efflux Pump Inhibitor (EPI), Minimum Inhibitory Concentration (Table 4, EPI Conc. 10 μg/ml): 0.06 µg/mL; Levofloxacin MIC Against P. aeruginosa PAM1001 in Presence of Efflux Pump Inhibitor (EPI), Minimum Inhibitory Concentration (Table 4, EPI Conc. 40 μg/ml): 0.06 µg/mL; Levofloxacin MIC Against P. aeruginosa PAM1001 in Presence of Efflux Pump Inhibitor (EPI), Minimum Inhibitory Concentration [4]: 0.06 µg/mL
D-Ornithyl-β-(N-cyclohexylmethyl)alanine 2-naphthylamide [Compound 17 (Table 3)] | 4 | 4 | 0.06 | 0.06 | 0.015 | 0.03 | 4 | 4 | 4 | 0.50 | 0.015 | 4 | 0.06 | 4 | 4 | 2 | 0.50 | 0.125 | 0.125 | 4 | Levofloxacin MIC Against P. aeruginosa PAM1001 in Presence of Efflux Pump Inhibitor (EPI), Minimum Inhibitory Concentration (Table 1, EPI Conc. […]): 4 µg/mL; Levofloxacin MIC Against P. aeruginosa PAM1001 in Presence of Efflux Pump Inhibitor (EPI), Minimum Inhibitory Concentration (Table 3, EPI Conc. […]): 4 µg/mL; Levofloxacin MIC Against P. aeruginosa PAM1001 in Presence of Efflux Pump Inhibitor (EPI), Minimum Inhibitory Concentration (Table 4, EPI Conc. 0.625 μg/ml): 4 µg/mL; Levofloxacin MIC Against P. aeruginosa PAM1001 in Presence of Efflux Pump Inhibitor (EPI), Minimum Inhibitory Concentration (Table 4, EPI Conc. 5 μg/ml): 4 µg/mL; Levofloxacin MIC Against P. aeruginosa PAM1001 in Presence of Efflux Pump Inhibitor (EPI), Minimum Inhibitory Concentration (Table 4, EPI Conc. 10 μg/ml): 2 µg/mL; Levofloxacin MIC Against P. aeruginosa PAM1001 in Presence of Efflux Pump Inhibitor (EPI), Minimum Inhibitory Concentration (Table 4, EPI Conc. 40 μg/ml): 0.125 µg/mL; Levofloxacin MIC Against P. aeruginosa PAM1001 in Presence of Efflux Pump Inhibitor (EPI), Minimum Inhibitory Concentration (Table 4, EPI Conc. […]): 4 µg/mL; Levofloxacin MIC Against P. aeruginosa PAM1001 in Presence of Efflux Pump Inhibitor (EPI), Minimum Inhibitory Concentration [4]: 1 µg/mL
